Measured values reported in patent publication US20080293683A1, “Hormone Replacement Therapy” (University of Kansas Medical Center, priority 2007, published 2008).
Where two headings read alike, the source gives them in different places.

Key:
recombinant human ERα = biological target: T1, recombinant human ERα (Homo sapiens, UniProt P03372); test: ERα binding assay: competition of [3H]E2 binding by competing estrogens; details: for RBAα % (relative binding affinity for ERα, of E2): calculated against E2 = 100; for RBAα/RBAβ: ratio of relative binding affinities ERα over ERβ; for RBA for ERα, % of E1: relative to E1
T1 construct: purchased PanVera Corporation (Madison, Wis.); host or cells: baculovirus-mediated expression system
T1 sequence (P03372 1-595): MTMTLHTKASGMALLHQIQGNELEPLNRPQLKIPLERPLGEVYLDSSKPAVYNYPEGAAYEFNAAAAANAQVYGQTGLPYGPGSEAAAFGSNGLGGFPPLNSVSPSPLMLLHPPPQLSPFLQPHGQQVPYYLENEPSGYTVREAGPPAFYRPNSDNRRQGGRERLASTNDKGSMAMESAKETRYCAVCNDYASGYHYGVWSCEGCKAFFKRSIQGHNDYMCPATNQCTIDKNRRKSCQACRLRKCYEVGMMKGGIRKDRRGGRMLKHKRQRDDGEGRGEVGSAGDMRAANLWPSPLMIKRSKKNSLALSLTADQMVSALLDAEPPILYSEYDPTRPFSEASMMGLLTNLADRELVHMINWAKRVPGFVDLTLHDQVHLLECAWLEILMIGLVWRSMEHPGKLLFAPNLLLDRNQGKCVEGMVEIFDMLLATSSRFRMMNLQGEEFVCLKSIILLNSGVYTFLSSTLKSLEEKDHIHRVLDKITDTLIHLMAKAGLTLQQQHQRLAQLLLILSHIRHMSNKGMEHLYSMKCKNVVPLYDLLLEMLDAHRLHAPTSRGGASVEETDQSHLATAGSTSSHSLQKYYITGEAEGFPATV
Source text: (§1) The recombinant human ERα and ERβ proteins and bovine serum albumin (BSA) were obtained from PanVera Corporation (Madison, Wis.). According to the supplier, the recombinant human ERα and ERβ were produced in a baculovirus-mediated expression system, and they were soluble and functionally active, with post-translational modifications similar to those found in mammalian cells. See Reid et al., Human estrogen receptor-α: Regulation by synthesis, modification and degradation, Cell. Mol. Life.
(§2) The following buffer solutions were used in the ER binding assays, and they were prepared beforehand and stored at 4° C. The binding buffer consisted of 10% glycerol, 2 mM dithiothreitol, 1 mg/mL BSA and 10 mM Tris-HCl at pH 7.5. The ERα washing buffer contained 40 mM Tris-HCl and 100 mM KCl (pH 7.4), but the ERG washing buffer contained only 40 mM Tris-HCl (adjusted to pH 7.4). The 50% hydroxylapatite slurry was prepared first by vigorously mixing 10 g hydroxylapatite with 60 mL of the Tris-HCl solution (50 mM, pH 7.4). Hydroxylapatite was then allowed to settle for 20 minutes at room temperature, and the supernatant was decanted. The above procedures were repeated 10 times, and afterwards hydroxylapatite was kept in the 50 mM Tris-HCl solution overnight at 4° C. Hydroxylapatite slurry was then adjusted to an approximate final concentration of 50% (v/v) using the same Tris-HCl solution and stored at 4° C., and the slurry was stable for up to several months.
(§3) Note that all of the estrogens were initially dissolved in pure ethanol to a stock concentration of 1 mM, and then further diluted to 100 μM with 20% aqueous ethanol. […] Immediately before the addition of the ERα or ERβ protein, it was diluted in the binding buffer and mixed gently with repetitive pipettings. […] The incubation mixture was then mixed gently and thoroughly with repetitive pipettings. […] The binding mixture was incubated at room temperature for two hours. At the end of the incubation, 100 μL of the hydroxylapatite slurry was added to each tube and the tubes were incubated on ice for 15 minutes with 3 times of brief vortexing. An aliquot (1 mL) of the appropriate washing buffer was added, mixed, and centrifuged at 10,000 g for five minutes, and the supernatants were discarded. This wash step was repeated twice. Hydroxylapatite pellets were then resuspended in 200 μL ethanol (followed by another rinse with 200 μL ethanol), and then the content was transferred to scintillation vials (containing 4 mL of the scintillation fluid) for measurement of ^3H-radioactivity with a liquid scintillation counter (Packard Tri-CARB 2900 TR; Downers Grove, Ill.).
(§4) To calculate the specific binding (pmol/mL) of the human ERα or ERβ protein at each concentration point, the following equation was used: […]
(§5) When a lower radioligand concentration is used, the corresponding IC50 value will also be relatively lower, but when the radioligand concentration increases, the corresponding IC50 value will also increase. […] Since the RBA value is a parameter that is independent of the radioligand concentration used, we thus have placed more emphasis on the RBA values instead of the absolute IC50 values in interpreting the physiological meanings of the data from in vitro receptor competition assays.

recombinant human ERβ = biological target: T2, recombinant human ERβ (Homo sapiens, UniProt Q92731); test: ERβ binding assay: competition of [3H]E2 binding by competing estrogens; details: for RBAβ (%) (relative binding affinity for ERβ, of E2): calculated against E2 = 100
T2 construct: purchased PanVera Corporation (Madison, Wis.); host or cells: baculovirus-mediated expression system
Source text: as §1, §2, §3, §4, §5

T2 sequence (Q92731 whole entry): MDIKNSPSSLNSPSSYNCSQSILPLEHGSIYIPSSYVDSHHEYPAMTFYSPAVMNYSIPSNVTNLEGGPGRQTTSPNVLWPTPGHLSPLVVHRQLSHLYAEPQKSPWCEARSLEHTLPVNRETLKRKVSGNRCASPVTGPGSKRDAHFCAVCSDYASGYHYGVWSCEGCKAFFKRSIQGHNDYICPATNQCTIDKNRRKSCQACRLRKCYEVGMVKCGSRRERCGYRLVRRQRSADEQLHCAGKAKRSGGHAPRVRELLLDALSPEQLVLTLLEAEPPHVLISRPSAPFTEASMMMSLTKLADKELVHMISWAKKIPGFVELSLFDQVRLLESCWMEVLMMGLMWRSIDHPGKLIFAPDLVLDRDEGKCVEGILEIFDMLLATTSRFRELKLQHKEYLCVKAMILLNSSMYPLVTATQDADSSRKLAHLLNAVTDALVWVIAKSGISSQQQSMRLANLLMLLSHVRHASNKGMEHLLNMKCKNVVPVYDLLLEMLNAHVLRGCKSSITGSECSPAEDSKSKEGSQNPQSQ

| SMILES | RBAα % (relative binding affinity for ERα, of E2) (recombinant human ERα) [%] | RBAα/RBAβ (recombinant human ERα) | IC50 (recombinant human ERα; read-out: ERα IC50) [nM] | RBAβ (%) (relative binding affinity for ERβ, of E2) (recombinant human ERβ) | IC50 (recombinant human ERβ; read-out: ERβ IC50) [nM] | further results |
| --- | --- | --- | --- | --- | --- | --- |
| CC12CCC3c4ccc(O)cc4C(=O)CC3C1CC(O)C2O (stereo not shown) [6-Keto-E3, 6-Ketoestriol] | 25 | 8.3 | 44.7 | 3 | 316 | RBAα/RBAβ (recombinant human ERα; listed as 6-ketoestriol): about 8.3; RBA for ERα, % of E3 (recombinant human ERα; relative to E3): 224%; RBA for ERβ, % of E3 (recombinant human ERβ; relative to E3): 8% |
| C[C@]12CC[C@@H]3c4ccc(O)cc4[C@@H](O)C[C@H]3[C@@H]1CC[C@@H]2O [6α-OH-E2, 6α-Hydroxyestradiol] | 6 | 1.5 | 200 | 4 | 251 | RBAα/RBAβ (recombinant human ERα; listed as 6α-hydroxyestradiol): about 1.5 |
| C[C@]12CC[C@@H]3c4ccc(O)cc4[C@H](O)C[C@H]3[C@@H]1CC[C@@H]2O [6β-OH-E2, 6β-Hydroxyestradiol] | 1 | 0.5 | 794 | 2 | 562 |  |
| C[C@]12C[C@@H](O)[C@@H]3c4ccc(O)cc4CC[C@H]3[C@@H]1CCC2=O [11α-OH-E1, 11α-Hydroxyestrone] |  |  | > 1000 |  | > 1000 |  |
| C[C@]12C[C@@H](O)[C@@H]3c4ccc(O)cc4CC[C@H]3[C@@H]1CC[C@@H]2O [11α-OH-E2, 11α-Hydroxyestradiol] |  |  | > 1000 |  | > 1000 |  |
| C#C[C@]1(O)CC[C@H]2[C@@H]3CCc4cc(O)ccc4[C@H]3[C@@H](OC)C[C@@]21C [11β-MeO-EE2, 11β-Methoxyethynylestradiol] | 35 | 1.8 | 31.6 | 20 | 44.7 | RBAα/RBAβ (recombinant human ERα; listed as 11β-methoxyethynyl estradiol): about 1.8 |
| C[C@]12C[C@H](O)[C@@H]3c4ccc(O)cc4CC[C@H]3[C@@H]1CCC2=O [11β-OH-E1, 11β-Hydroxyestrone] |  |  | > 1000 |  | > 1000 |  |
| CC12CC(O)C3c4ccc(O)cc4CCC3C1CCC2O (stereo not drawn) [11β-OH-E2, 11β-Hydroxyestradiol] |  |  | > 1000 |  | > 1000 |  |
| C[C@]12CC[C@@H]3c4ccc(O)cc4CC[C@H]3[C@@H]1[C@@H](O)[C@@H](O)[C@@H]2O [15α-OH-E3, 15α-Hydroxyestriol (Estetrol)] | 4 | 1.3 | 282 | 3 | 355 | RBAα/RBAβ (recombinant human ERα; listed as estetrol): about 1.3 |
| C[C@@]12C=CC[C@H]1[C@@H]1CCc3cc(O)ccc3[C@H]1CC2 [16-Estratetraen, 1,3,5(10),16-Estratetraen-3-ol] | 35 | 0.4 | 31.6 | 80 | 14.1 |  |
| CC12CCC3c4ccc(O)cc4CCC3C1CC(=O)C2=O (stereo not shown) [16-Keto-E1, 16-Ketoestrone] | 2 | 0.2 | 631 | 10 | 89.1 | RBA for ERα, % of E1 (recombinant human ERα): 18%; RBA for ERβ, % of E1 (recombinant human ERβ; relative to E1): 501%; binding affinity for ERβ, fold higher than E1 (recombinant human ERβ; relative to E1): five-fold higher; relative preference for ERβ over ERα, times higher than E1 (recombinant human ERβ; relative to E1): approximately 25 times |
| C[C@]12CC[C@@H]3c4ccc(O)cc4CC[C@H]3[C@@H]1CC(=O)[C@@H]2O [16-Keto-E2, 16-Ketoestradiol] | 1 | 0.1 | 112 | 18 | 50.1 |  |
| C[C@]12CC[C@@H]3c4ccc(O)cc4CC[C@H]3[C@@H]1C[C@@H](O)C2=O [16α-OH-E1, 16α-Hydroxyestrone] |  | 0.1 |  | 35 |  | IC50 (recombinant human ERα): 56.2 nM; binding affinity for ERα (in words) (recombinant human ERα): twice as high as that of E1; IC50 (recombinant human ERβ): 25.1 nM; binding affinity for ERβ, fold higher than E1 (recombinant human ERβ; relative to E1): 18 fold |
| CC12CCCC1C1CCc3cc(O)ccc3C1CC2 (stereo not shown) [17-Desoxy-E2, 17-Desoxyestradiol] | 16 | 0.4 | 70.8 | 45 | 19.9 |  |
| C[C@]12CCc3c(ccc4cc(O)ccc34)[C@@H]1CCC2=O [D-Equilenin] | 2 | 0.3 |  | 7 |  | IC50 (recombinant human ERα): 562 nM; ERα RBA (recombinant human ERα; Table 4, Premarin components): 2; Ratio (ERα RBA / ERβ RBA) (recombinant human ERα; Table 4, Premarin components): 0.3; RBA for ERα, % of E1 (recombinant human ERα): 20%; IC50 (recombinant human ERβ): 126 nM; ERβ RBA (recombinant human ERβ; Table 4, Premarin components): 7; RBA for ERβ, % of E1 (recombinant human ERβ; relative to E1): 355%; binding affinity for ERβ, fold higher than E1 (recombinant human ERβ; relative to E1): more than 3 fold |
| C/C=C(/C(=C/C)c1ccc(O)cc1)c1ccc(O)cc1 [Dienestrol, reference compound] | 37 | 0.7 | 30.2 | 56 | 19.9 |  |
| C[C@]12CC[C@@H]3c4ccc(OS(=O)(=O)O)cc4CC[C@H]3[C@@H]1CC[C@@H]2O [E2-3-sulfate, Estradiol 3-sulfate] |  |  | > 1000 |  | > 1000 | binding affinity for ERα (in words) (recombinant human ERα; concentrations up to 1000 nM): basically devoid of appreciable binding affinity; binding affinity for ERβ (in words) (recombinant human ERβ; concentrations up to 1000 nM): basically devoid of appreciable binding affinity |
| C[C@]12CC[C@@H]3c4ccc(O)cc4C[C@@H](CCCCCCO)[C@H]3[C@@H]1CC[C@@H]2O [E2-7α-(CH2)6OH, 7α-(6-Hydroxyhexanyl)-17β-estradiol] | 27 | 0.7 | 41.8 | 40 | 22.3 |  |
